Results: ChEMBL document CHEMBL5674860, “Optimized Dual-Glo Assay to identify co-culture-induced drug vulnerabilities in 3D CRC models” (2024)

Experiments:
Assay type in all cases: functional, Homo sapiens
Parameters in all cases: dose or concentration left out as unconfirmed
[1] = test system: Colon cancer organoid; assay: Optimized Dual-Glo assay to identify co-culture induced drug vulnerabilities using donated chemical probes and chemogenomics kinase set in O20 CRC organoid and F20 CAF mono and co-culture. […] Cell viability is reported both mono and co-culture models.
[2] = test system: Colon cancer organoid; assay: Optimized Dual-Glo assay to identify co-culture induced drug vulnerabilities using donated chemical probes and chemogenomics kinase set in O14 CRC organoid and F14 CAF mono and co-culture. […] Cell viability is reported both mono and co-culture models.
[3] = test system: Colon cancer organoid; assay: Optimized Dual-Glo assay to identify co-culture induced drug vulnerabilities using donated chemical probes and chemogenomics kinase set in O06 CRC organoid and F06 CAF mono and co-culture. […] Cell viability is reported both mono and co-culture models.
[4] = Culture type Co-Culture, Transduced with Lucferase2-P2A-EGFP lentivirus
[5] = Culture type Co-Culture, Transduced with Renilla-dsRed lentivirus
[6] = Culture type Mono-Culture, Transduced with Lucferase2-P2A-EGFP lentivirus
[7] = Culture type Mono-Culture, Transduced with Renilla-dsRed lentivirus

| SMILES | Cell Viability [1, 4] | Cell Viability [1, 5] | Cell Viability [1, 6] | Cell Viability [1, 7] | Cell Viability [2, 4] | Cell Viability [2, 5] | Cell Viability [2, 6] | Cell Viability [2, 7] | Cell Viability [3, 4] | Cell Viability [3, 5] | Cell Viability [3, 6] | Cell Viability [3, 7] |
| --- | --- | --- | --- | --- | --- | --- | --- | --- | --- | --- | --- | --- |
| COc1cc(Nc2ncc3c(n2)-c2ccc(Cl)cc2C(c2c(F)cccc2OC)=NC3)ccc1C(=O)O [ALISERTIB] | 6.089% | 322.747% | 10.9419% | 116.531% | 16.1373% | 168.728% | 26.2121% | 103.392% | 20.0499% | 286.415% | 8.923% | 120.563% |
| Cc1nc(NC(=O)N2CCC[C@H]2C(N)=O)sc1-c1ccnc(C(C)(C)C(F)(F)F)c1 [ALPELISIB] | 70.7946% | 99.8659% | 21.7931% | 78.1697% | 44.356% | 105.185% | 47.7974% | 68.4414% | 74.6278% | 68.5217% | 72.4718% | 69.5837% |
| CC(C)[C@H](C(=O)Nc1ccc(C(=O)NO)cc1)c1ccccc1 [AR-42] | 13.9159% | 352.85% | 21.6913% | 192.04% | 19.466% | 585.967% | 17.1608% | 305.591% | 8.004% | 640.047% | 17.2646% | 486.211% |
| Cc1cnc(-c2cc(Cl)ccc2F)cc1-n1c(=O)n(CC(N)=O)c2ccccc21 [Al11] | 99.824% | 109.542% | 113.608% | 109.646% | 93.5042% | 89.0527% | 114.229% | 91.7467% | 79.8154% | 66.9379% | 96.9616% | 102.254% |
| Cc1ccccc1Oc1cc(-n2c(=O)cc(C(F)(F)F)[nH]c2=O)c2ccccc2c1Cl [BAY-069] | 83.88% | 119.466% | 87.9837% | 109.318% | 114.551% | 130.948% | 135.188% | 102.99% | 128.819% | 153.89% | 114.766% | 111.149% |
| Cn1c(-c2csc(C3CCN(CC4=NC5N=CC=CC5N4)CC3)n2)nc2ccccc21 (stereo not drawn) [BAY-070] | 41.8948% | 84.0468% | 78.1822% | 83.7423% | 71.6704% | 82.4795% | 106.637% | 95.1305% | 29.934% | 49.5381% | 49.5158% | 105.274% |
| NS(=O)(=O)c1cc(NC(=O)C2(c3ccccc3Cl)CC2)ccc1Oc1cccc(Cl)c1 [BAY-207] | 177.814% | 111.752% | 143.896% | 130.032% | 108.195% | 102.868% | 157.597% | 122.925% | 80.0716% | 155.512% | 77.1877% | 150.163% |
| CNCc1ccccc1-c1csc([C@@H](C)Nc2nc(C)nc3cc(OC)c(OC)cc23)c1 [BAY-293] | 78.2703% | 145.24% | 64.4683% | 82.7466% | 46.6211% | 132.811% | 47.2835% | 107.217% | 76.9111% | 225.989% | 4.78% | 87.8539% |
| Cc1cc(NC(=O)c2cccc(S(F)(F)(F)(F)F)c2)cc(-n2ccn3nc(-c4cccnc4)cc23)c1 [BAY-309] | 122.672% | 127.793% | 129.399% | 97.9255% | 98.153% | 84.8781% | 155.954% | 76.6739% | 84.4525% | 147.367% | 49.1708% | 77.7093% |
| O=C(N1CCS(=O)(=O)CC1)N1C[C@H](c2ccc(OC(F)(F)F)cc2)C[C@H](c2nc(C3CC3)no2)C1 [BAY-386] | 61.9652% | 114.29% | 99.9064% | 89.9943% | 116.117% | 119.771% | 94.8331% | 98.6833% | 131.392% | 144.172% | 106.882% | 101.013% |
| Cc1c(N2CCNCC2)nc2ccc(Br)cc2c1C(=O)NC[C@H](CCC(=O)O)c1ccccc1Cl [BAY-403] | 119.673% | 79.2483% | 97.0551% | 97.643% | 128.287% | 83.5136% | 111.567% | 88.9346% | 78.4474% | 70.4581% | 95.2254% | 113.122% |
| CN(C)c1ncnc(-c2ccc3nc(Nc4cc(CN5CCN(C(=O)CC(F)(F)F)CC5)ccn4)[nH]c3c2)c1Cl [BAY-440] | 123.006% | 109.622% | 117.784% | 126.413% | 103.771% | 112.238% | 114.79% | 113.849% | 92.9994% | 174.385% | 85.2405% | 88.7418% |
| Cc1noc([C@H]2C[C@@H](c3ccc(C(F)(F)F)cc3)CN(C(=O)N3CCS(=O)(=O)C3)C2)n1 [BAY-448] | 115.252% | 84.5218% | 119.935% | 108.615% | 96.3881% | 112.512% | 127.621% | 97.5385% | 105.176% | 127.928% | 104.997% | 116.857% |
| CC1=C(C#N)C(c2ccc3[nH]nc(C)c3c2)C(C#N)=C(C)N1 [BAY-474] | 81.7867% | 102.241% | 98.8764% | 79.7467% | 198.7% | 101.908% | 71.8172% | 85.997% | 148.587% | 192.268% | 98.9453% | 96.2381% |
